Source: article PMC12892976, “Alkylation-based optimization of antifungal FPPS inhibitors yields a potent, broad-spectrum lipophilic zoledronate derivative” (mBio, 2025)
Read-outs that look alike come from different tables or passages of the source.

What was measured:
[1] = test system: Cryptococcus deuterogattii; experiment: MIC/MFC broth microdilution (CLSI); settings: Cryptococcus deuterogattii;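 note: broth microdilution per CLSI M27-Ed4. MFC is the lowest concentration yielding no colonies when MIC broths are subcultured onto SDA plates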
Method: (§1) Antifungal susceptibility was determined by broth microdilution according to the CLSI guidelines described in M27-Ed4 ([16]). […] MFC was determined by back-plating drug-treated cultures from MIC broths onto SDA plates. The MFC was defined as the lowest concentration from which no colonies could be cultured.

Trichophyton rubrum [2] = experiment: MIC/MFC broth microdilution (CLSI); settings: Trichophyton rubrum
Method: as §1

Aspergillus fumigatus [3] = experiment: MIC/MFC broth microdilution (CLSI); settings: ATCC204305
Method: as §1

[4] = test system: Cryptococcus deuterogattii; experiment: checkerboard drug interaction (FICI, MICc);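 for all read-outs here: simplified diagonal checkerboard screen pairing antifungal drugs with FPPS inhibitors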; assay type: cell-based; settings: C. deuterogattii; for INH FD (MIC-MICc fold decrease): fold decrease of inhibitor MIC
Method: (§2) Drug interactions between antifungals and FPPS inhibitors were investigated using a simplified checkerboard diagonal screening method ([45]). […] FICIs were determined according to the Loewe additivity model ([17]).

eight fungal species [5] = experiment: checkerboard interaction with azoles, summary across the eight species; assay type: cell-based; settings: geometric mean MIC in combination with azoles
Description: Synergy between lipophilic FPPS inhibitors and azole antifungals was investigated by determining the fractional inhibitory concentration index (FICI) (Fig. 2; Table S1 Fig. S1) ([17]). […]. Derivatives PLA9 and 11, and PDA9, 11, and 12 antagonized azoles in C. albicans, C. neoformans, and C. deuterogattii, yet were largely synergistic in C. glabrata and S. cerevisiae. […].

Saccharomyces cerevisiae [6] = experiment: MIC/MFC broth microdilution (CLSI); assay type: cell-based; settings: Saccharomyces cerevisiae S288c
Method: as §1

Cryptococcus neoformans [7] = experiment: checkerboard drug interaction (FICI, MICc);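 for all read-outs here: antifungal plus FPPS inhibitor pairs tested against Cryptococcus neoformans by simplified diagonal checkerboard screening, FICI computed under the Loewe additivity model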; assay type: cell-based; settings: C. neoformans; for INH FD (MIC-MICc fold decrease): fold decrease of inhibitor MIC
Method: as §2

Candida glabrata [8] = experiment: MIC/MFC broth microdilution (CLSI); settings: Nakaseomyces glabratus, CBS138;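 note: broth microdilution following CLSI M27-Ed4, MFC taken as the lowest drug level yielding no growth once MIC wells were subcultured on SDA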
Method: as §1

eight fungal species [9] = experiment: MIC/MFC summary across the eight fungal species of Table 1; assay type: cell-based
Method: The antifungal activity of these compounds was evaluated according to CLSI guidelines ([16]).

Candida glabrata [10] = experiment: checkerboard drug interaction (FICI, MICc);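 for all read-outs here: simplified diagonal checkerboard screen pairing antifungals with FPPS inhibitors, FICI calculated under the Loewe additivity model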; assay type: cell-based; settings: C. glabrata; for INH FD (MIC-MICc fold decrease): fold decrease of inhibitor MIC
Method: as §2

Aspergillus flavus [11] = experiment: MIC/MFC broth microdilution (CLSI); settings: ATCC204304
Method: as §1

Saccharomyces cerevisiae [12] = experiment: checkerboard drug interaction (FICI, MICc);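 for all read-outs here: simplified diagonal checkerboard screen pairing antifungals with FPPS inhibitors, FICI calculated under the Loewe additivity model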; assay type: cell-based; parameters: INH MICc / INH MICc (ITR:INH) / INH MICc (KET:INH) / INH MICc (FLC:INH): unit not given beside the values; settings: S. cerevisiae; for INH FD (MIC-MICc fold decrease): fold decrease of inhibitor MIC
Aspergillus fumigatus [13] = experiment: checkerboard drug interaction (FICI, MICc);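 for all read-outs here: simplified diagonal checkerboard screen pairing antifungals with FPPS inhibitors against Aspergillus fumigatus, with FICI calculated under the Loewe additivity model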; assay type: cell-based; settings: A. fumigatus; for INH FD (MIC-MICc fold decrease): fold decrease of inhibitor MIC
Method: as §2

Candida albicans [14] = experiment: checkerboard drug interaction (FICI, MICc);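 for all read-outs here: antifungal plus FPPS inhibitor combinations on Candida albicans tested by a simplified diagonal checkerboard screen, with FICI calculated under the Loewe additivity model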; assay type: cell-based; settings: C. albicans; for INH FD (MIC-MICc fold decrease): fold decrease of inhibitor MIC
Method: as §2

Trichophyton rubrum [15] = experiment: checkerboard drug interaction (FICI, MICc);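 note: simplified diagonal checkerboard screen pairing azole antifungals with FPPS inhibitors, FICI calculated under the Loewe additivity model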; assay type: cell-based; settings: T. rubrum
Method: as §2

HEK-293T cells = experiment: MTT reduction cytotoxicity assay; assay type: cell-based; settings: Homo sapiens, HEK-293T, 72 h, HEK-293T, MTT, 72 h; read-out: HEK IC50
Cryptococcus neoformans [16] = experiment: MIC/MFC broth microdilution (CLSI); settings: Cryptococcus neoformans;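 note: susceptibility testing followed the CLSI M27-Ed4 broth microdilution document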
Method: as §1

Aspergillus flavus [17] = experiment: checkerboard drug interaction (FICI, MICc);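 note: simplified diagonal checkerboard screen pairing azole antifungals with FPPS inhibitors, FICI calculated under the Loewe additivity model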; assay type: cell-based; parameters: INH MICc (KET:INH) / INH MICc (FLC:INH): unit not given beside the values; settings: A. flavus
Candida albicans [18] = experiment: MIC/MFC broth microdilution (CLSI); assay type: cell-based; settings: Candida albicans SC5314
Method: as §1

[19] = FLC:INH combination, MIC of the inhibitor in combination with FLC
[20] = FLC:INH combination, fold decrease of FLC MIC
[21] = ITR:INH combination, MIC of the inhibitor in combination with ITR
[22] = ITR:INH combination, fold decrease of ITR MIC
[23] = KET:INH combination, MIC of the inhibitor in combination with KET
[24] = KET:INH combination, fold decrease of KET MIC
[25] = FLC:INH combination, MIC of FLC in combination with the inhibitor
[26] = ITR:INH combination, MIC of ITR in combination with the inhibitor
[27] = KET:INH combination, MIC of KET in combination with the inhibitor
[28] = Fractional Inhibitory Concentration Index, fluconazole + inhibitor
[29] = Fractional Inhibitory Concentration Index, itraconazole + inhibitor
[30] = Fractional Inhibitory Concentration Index, ketoconazole + inhibitor
[31] = MIC of the inhibitor in combination with fluconazole
[32] = MIC of the inhibitor in combination with itraconazole
[33] = MIC of the inhibitor in combination with ketoconazole
[34] = MIC-MICc fold decrease of fluconazole, negative = increase
[35] = MIC-MICc fold decrease of itraconazole, negative = increase
[36] = MIC-MICc fold decrease of ketoconazole, negative = increase
[37] = MIC-MICc fold decrease of the inhibitor, with fluconazole
[38] = MIC-MICc fold decrease of the inhibitor, with itraconazole
[39] = MIC-MICc fold decrease of the inhibitor, with ketoconazole

CCCCCCCCCN1CCC[C@H]1C(=O)N[C@@H](CC(=O)O)C(=O)O [PLA9]
MFC [1]: > 128 µg/mL
MIC [1]: > 128 µg/mL
MFC (Trichophyton rubrum [2]): > 128 µg/mL
MIC (Trichophyton rubrum [2]): > 128 µg/mL
MFC (Aspergillus fumigatus [3]): > 128 µg/mL
MIC (Aspergillus fumigatus [3]): > 128 µg/mL
FICI ([4]; FLC:INH combination): ≥4
INH MICc [4, 19]: 256
FLC FD (MIC-MICc fold decrease) [4, 20]: -4
INH FD (MIC-MICc fold decrease) ([4]; FLC:INH combination): 1
FICI ([4]; ITR:INH combination): ≥4
INH MICc [4, 21]: 256
ITR FD (MIC-MICc fold decrease) [4, 22]: < -4
INH FD (MIC-MICc fold decrease) ([4]; ITR:INH combination): 1
FICI ([4]; KET:INH combination): 1
INH MICc [4, 23]: 128
KET FD (MIC-MICc fold decrease) [4, 24]: 2
INH FD (MIC-MICc fold decrease) ([4]; KET:INH combination): 2
GM fungal MICc (eight fungal species [5]): 53.8
MFC (Saccharomyces cerevisiae [6]): > 128 µg/mL
MIC (Saccharomyces cerevisiae [6]): > 128 µg/mL
FICI (Cryptococcus neoformans [7]; FLC:INH combination): ≥4
INH MICc (Cryptococcus neoformans [7]; [19]): 256
FLC FD (MIC-MICc fold decrease) (Cryptococcus neoformans [7]; [20]): < -4
INH FD (MIC-MICc fold decrease) (Cryptococcus neoformans [7]; FLC:INH combination): 1
FICI (Cryptococcus neoformans [7]; ITR:INH combination): ≥4
INH MICc (Cryptococcus neoformans [7]; [21]): 128
ITR FD (MIC-MICc fold decrease) (Cryptococcus neoformans [7]; [22]): -4
INH FD (MIC-MICc fold decrease) (Cryptococcus neoformans [7]; ITR:INH combination): 2
FICI (Cryptococcus neoformans [7]; KET:INH combination): ≥4
INH MICc (Cryptococcus neoformans [7]; [23]): 128
KET FD (MIC-MICc fold decrease) (Cryptococcus neoformans [7]; [24]): -4
INH FD (MIC-MICc fold decrease) (Cryptococcus neoformans [7]; KET:INH combination): 2
MFC (Candida glabrata [8]): > 128 µg/mL
MIC (Candida glabrata [8]): > 128 µg/mL
MFC (eight fungal species [9]; across eight species, read-out: Geometric mean MFC): > 128 µg/mL
MIC (eight fungal species [9]; geometric mean across eight species, read-out: GM fungal MIC): > 128 µg/mL
MIC (eight fungal species [9]; read-out: Geometric mean MIC): > 128 µg/mL
FICI (Candida glabrata [10]; FLC:INH combination): 0.31
INH MICc (Candida glabrata [10]; [19]): 4
FLC FD (MIC-MICc fold decrease) (Candida glabrata [10]; [20]): 4
INH FD (MIC-MICc fold decrease) (Candida glabrata [10]; FLC:INH combination): 64
FICI (Candida glabrata [10]; ITR:INH combination): 0.28
INH MICc (Candida glabrata [10]; [21]): 2
ITR FD (MIC-MICc fold decrease) (Candida glabrata [10]; [22]): 4
INH FD (MIC-MICc fold decrease) (Candida glabrata [10]; ITR:INH combination): 128
FICI (Candida glabrata [10]; KET:INH combination): 0.28
INH MICc (Candida glabrata [10]; [23]): 2
KET FD (MIC-MICc fold decrease) (Candida glabrata [10]; [24]): 4
INH FD (MIC-MICc fold decrease) (Candida glabrata [10]; KET:INH combination): 128
MFC (Aspergillus flavus [11]): > 128 µg/mL
MIC (Aspergillus flavus [11]): > 128 µg/mL
FICI (Saccharomyces cerevisiae [12]; FLC:INH combination): 0.31
FLC MICc (Saccharomyces cerevisiae [12]; [25]): 1
INH MICc (Saccharomyces cerevisiae [12]; [19]): 16
FLC FD (MIC-MICc fold decrease) (Saccharomyces cerevisiae [12]; [20]): 4
INH FD (MIC-MICc fold decrease) (Saccharomyces cerevisiae [12]; FLC:INH combination): 16
FICI (Saccharomyces cerevisiae [12]; ITR:INH combination): 0.5
ITR MICc (Saccharomyces cerevisiae [12]; [26]): 0.063
INH MICc (Saccharomyces cerevisiae [12]; [21]): 64
ITR FD (MIC-MICc fold decrease) (Saccharomyces cerevisiae [12]; [22]): 4
INH FD (MIC-MICc fold decrease) (Saccharomyces cerevisiae [12]; ITR:INH combination): 4
FICI (Saccharomyces cerevisiae [12]; KET:INH combination): 0.19
KET MICc (Saccharomyces cerevisiae [12]; [27]): 0.25
INH MICc (Saccharomyces cerevisiae [12]; [23]): 16
KET FD (MIC-MICc fold decrease) (Saccharomyces cerevisiae [12]; [24]): 8
INH FD (MIC-MICc fold decrease) (Saccharomyces cerevisiae [12]; KET:INH combination): 16
FICI (Aspergillus fumigatus [13]; FLC:INH combination): 2
FLC MICc (Aspergillus fumigatus [13]; [25]): 128
INH MICc (Aspergillus fumigatus [13]; [19]): 256
FLC FD (MIC-MICc fold decrease) (Aspergillus fumigatus [13]; [20]): 1
INH FD (MIC-MICc fold decrease) (Aspergillus fumigatus [13]; FLC:INH combination): 1
FICI (Aspergillus fumigatus [13]; ITR:INH combination): 0.51
ITR MICc (Aspergillus fumigatus [13]; [26]): 0.063
INH MICc (Aspergillus fumigatus [13]; [21]): 2
ITR FD (MIC-MICc fold decrease) (Aspergillus fumigatus [13]; [22]): 2
INH FD (MIC-MICc fold decrease) (Aspergillus fumigatus [13]; ITR:INH combination): 128
FICI (Aspergillus fumigatus [13]; KET:INH combination): 1.5
KET MICc (Aspergillus fumigatus [13]; [27]): 4
INH MICc (Aspergillus fumigatus [13]; [23]): 128
KET FD (MIC-MICc fold decrease) (Aspergillus fumigatus [13]; [24]): 1
INH FD (MIC-MICc fold decrease) (Aspergillus fumigatus [13]; KET:INH combination): 2
FICI (Candida albicans [14]; FLC:INH combination): ≥4
INH MICc (Candida albicans [14]; [19]): 64
FLC FD (MIC-MICc fold decrease) (Candida albicans [14]; [20]): < -4
INH FD (MIC-MICc fold decrease) (Candida albicans [14]; FLC:INH combination): 4
FICI (Candida albicans [14]; ITR:INH combination): 0.52
INH MICc (Candida albicans [14]; [21]): 4
ITR FD (MIC-MICc fold decrease) (Candida albicans [14]; [22]): 2
INH FD (MIC-MICc fold decrease) (Candida albicans [14]; ITR:INH combination): 64
FICI (Candida albicans [14]; KET:INH combination): ≥4
INH MICc (Candida albicans [14]; [23]): 64
KET FD (MIC-MICc fold decrease) (Candida albicans [14]; [24]): < -4
INH FD (MIC-MICc fold decrease) (Candida albicans [14]; KET:INH combination): 4
FICI (FLC:INH) (Trichophyton rubrum [15]; [28]): 3
FICI (ITR:INH) (Trichophyton rubrum [15]; [29]): 2
FICI (KET:INH) (Trichophyton rubrum [15]; [30]): 1.5
INH MICc (FLC:INH) (Trichophyton rubrum [15]; [31]): 256
INH MICc (ITR:INH) (Trichophyton rubrum [15]; [32]): 256
INH MICc (KET:INH) (Trichophyton rubrum [15]; [33]): 128
FLC FD (FLC:INH) (Trichophyton rubrum [15]; [34]): -2
ITR FD (ITR:INH) (Trichophyton rubrum [15]; [35]): 1
KET FD (KET:INH) (Trichophyton rubrum [15]; [36]): 1
INH FD (FLC:INH) (Trichophyton rubrum [15]; [37]): 1
INH FD (ITR:INH) (Trichophyton rubrum [15]; [38]): 1
INH FD (KET:INH) (Trichophyton rubrum [15]; [39]): 2
IC50 (HEK-293T cells): > 256 µg/mL
MFC (Cryptococcus neoformans [16]): > 128 µg/mL
MIC (Cryptococcus neoformans [16]): > 128 µg/mL
FICI (FLC:INH) (Aspergillus flavus [17]; [28]): 2
FICI (ITR:INH) (Aspergillus flavus [17]; [29]): 1.5
FICI (KET:INH) (Aspergillus flavus [17]; [30]): 1
INH MICc (FLC:INH) (Aspergillus flavus [17]; [31]): 256
INH MICc (ITR:INH) (Aspergillus flavus [17]; [32]): 128
INH MICc (KET:INH) (Aspergillus flavus [17]; [33]): 128
FLC FD (FLC:INH) (Aspergillus flavus [17]; [34]): 1
ITR FD (ITR:INH) (Aspergillus flavus [17]; [35]): 1
KET FD (KET:INH) (Aspergillus flavus [17]; [36]): 2
INH FD (FLC:INH) (Aspergillus flavus [17]; [37]): 1
INH FD (ITR:INH) (Aspergillus flavus [17]; [38]): 2
INH FD (KET:INH) (Aspergillus flavus [17]; [39]): 2
MFC (Candida albicans [18]): > 128 µg/mL
MIC (Candida albicans [18]): > 128 µg/mL
